Measurements reported in patent publication US20220389010A1, “Novel Triazolopyridine Derivatives and Pharmaceutical Composition Comprising Same” (Daewoong Pharmaceutical Co., Ltd., priority 2019, published 2022).

Target: T1, Recombinant purified human JAK3 (Homo sapiens, UniProt P52333)
T1 construct: purchased Promega V9441
T1 sequence (P52333 1-1124): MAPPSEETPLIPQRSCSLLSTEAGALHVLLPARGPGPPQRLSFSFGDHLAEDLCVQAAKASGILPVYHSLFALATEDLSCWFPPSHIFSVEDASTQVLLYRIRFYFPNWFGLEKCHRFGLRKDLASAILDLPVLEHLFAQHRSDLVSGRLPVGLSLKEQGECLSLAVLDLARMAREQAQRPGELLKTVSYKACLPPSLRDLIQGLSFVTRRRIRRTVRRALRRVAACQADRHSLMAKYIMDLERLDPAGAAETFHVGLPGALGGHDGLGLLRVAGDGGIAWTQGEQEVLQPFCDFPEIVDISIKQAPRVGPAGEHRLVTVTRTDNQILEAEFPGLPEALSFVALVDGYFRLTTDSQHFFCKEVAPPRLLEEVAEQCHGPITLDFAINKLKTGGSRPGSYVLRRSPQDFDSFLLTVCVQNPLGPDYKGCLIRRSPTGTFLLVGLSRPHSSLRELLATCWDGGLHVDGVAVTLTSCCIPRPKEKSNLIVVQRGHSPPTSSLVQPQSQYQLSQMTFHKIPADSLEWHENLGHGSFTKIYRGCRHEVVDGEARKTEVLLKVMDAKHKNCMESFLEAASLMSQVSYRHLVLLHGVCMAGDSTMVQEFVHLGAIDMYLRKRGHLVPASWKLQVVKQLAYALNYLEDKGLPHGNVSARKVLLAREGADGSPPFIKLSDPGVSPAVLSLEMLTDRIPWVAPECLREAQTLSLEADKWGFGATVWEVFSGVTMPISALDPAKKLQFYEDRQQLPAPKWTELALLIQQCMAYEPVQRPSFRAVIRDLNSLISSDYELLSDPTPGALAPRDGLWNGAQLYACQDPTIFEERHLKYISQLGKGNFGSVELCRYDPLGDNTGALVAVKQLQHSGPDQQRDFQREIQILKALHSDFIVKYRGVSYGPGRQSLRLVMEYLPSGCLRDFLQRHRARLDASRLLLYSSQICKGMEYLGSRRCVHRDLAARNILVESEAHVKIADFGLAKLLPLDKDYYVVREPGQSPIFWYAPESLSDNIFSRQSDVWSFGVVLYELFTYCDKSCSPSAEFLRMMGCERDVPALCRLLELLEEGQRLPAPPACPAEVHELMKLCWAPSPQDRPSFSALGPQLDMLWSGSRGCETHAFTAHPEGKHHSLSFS
Experiment: JAK3 inhibitory activity test (ADP-Glo kinase assay)
Type: biochemical
Settings: ATP 5 uM, 1 hour incubation at 30° C.
Description: The inhibitory activities against JAK3 were measured for the compounds prepared in the above Examples through in vitro analysis on the ADP Glow (Glo) platform.
Specifically, the inhibitory activities against JAK3 were measured using a JAK3 kinase assay kit (Promega, V9441), which was purchased from Promega. Recombinant purified human JAK3 was diluted with 1× kinase reaction buffer (JAK3: 40 mM Tris-CI, pH 7.5, 20 mM MgCl2, 0.1 mg/mL BSA and 50 uM OTT and added to a 96 well plate (JAK3: final concentration of 4 ng per reaction). The compounds prepared in the previous Examples were treated so as to be finally a 1% DMSO aqueous solution, and a substrate cocktail containing ATP (JAK3: final concentration of 5 uM) and 0.2 ug/ul of Poly(Glu4, Tyri) peptide (JAK3 final concentration) in the total 25 uL reactants was added to a 96-well plate to initiate enzymatic reaction. After incubation (30° C.) for 1 hour, equivalent volume (25 uL per reaction) of ADP Glo was added and incubated (30° C.) for 40 minutes at room temperature. Then, a kinase detection reagent (50 uL per reaction) was added and incubated (30° C.) for 30 minutes at room temperature. The kinase activity was measured by chemiluminescence according to the instructions of ADP Glo kinase assay kit, and the inhibitory activity of the compounds according to the present invention was calculated. For the analysis of the results of each compound, Microsoft Excel was used, and IC50 values were calculated by SigmaPlot software.

Structure (SMILES) | IC50 [nM]
C=CC(=O)Nc1ccc(F)c(Oc2cccc3nc(Nc4ccc(N5CCOCC5)cc4)nn23)c1 [Example 27, N-(4-fluoro-3-(2-(4-morpholinophenylamino)-[1,2,4]triazolo[1,5-a]pyridin-5-yloxy)phenyl)acrylamide] | 1.3
C=CC(=O)Nc1ccc(F)c(Oc2cccc3nc(Nc4ccc5ncsc5c4)nn23)c1 [Example 28, N-(3-(2-(benzo[d]thiazol-6-ylamino)-[1,2,4]triazolo[1,5-a]pyridin-5-yloxy)-4-fluorophenyl)acrylamide] | 1.2
C=CC(=O)Nc1ccc(F)c(Oc2cccc3nc(Nc4ccc(N5CCN(C)CC5)cc4)nn23)c1 [Example 29, N-(4-fluoro-3-(2-(4-(4-methylpiperazin-1-yl)phenylamino)-[1,2,4]triazolo[1,5-a]pyridin-5-yloxy)phenyl)acrylamide] | 0.7
C=CC(=O)Nc1ccc(F)c(Oc2cccc3nc(Nc4cnn(C)c4)nn23)c1 [Example 30, N-(4-fluoro-3-(2-(1-methyl-1H-pyrazol-4-ylamino)-[1,2,4]triazolo[1,5-a]pyridin-5-yloxy)phenyl)acrylamide] | 13.1
C=CC(=O)Nc1ccc(F)c(Oc2cccc3nc(Nc4cnn(C(F)F)c4)nn23)c1 [Example 31, N-(3-(2-(1-(difluoromethyl)-1H-pyrazol-4-ylamino)-[1,2,4]triazolo[1,5-a]pyridin-5-yloxy)-4-fluorophenyl)acrylamide] | 18.2
